Consider 17 compounds from patent US20030013660A1, “Dioxolane analogs for improved inter-cellular delivery” (Shire BioChem Inc., priority 2000, published 2003).

Holding throughout (assay): 3H-TdR (3H-thymidine) incorporation assay at 72 hr
The test system of one assay is SF-268. It is filed as cell-based, Human. The note with it: Homo sapiens, SF-268, read-out: IC50 SF-268 24 h, 24 h drug exposure, wash, another 48 hr; 3H-TdR incorporation at 72 hr.
The next assay relates to CCRF-CEM. It counts as cell-based. The note with it: Homo sapiens, CCRF-CEM, read-out: IC50 CCRF-CEM 24 h, 24 h drug exposure, wash, another 48 hr; 3H-TdR incorporation at 72 hr. On the procedure:
(§1) Table of IC50 Values (μM) for Controls
(§2) Exposition of 24 hr to drug, wash, incubated for another 48 hr (total of 72 hr assay)
(§3) (3H-Thymidine Incorporation Assay)

Another assay deals with CEM/dCK-. It is filed as cell-based. The following applies: for IC50: Homo sapiens, CCRF-CEM, read-out: IC50 CEM/dCK- 24 h, 24 h drug exposure, wash, another 48 hr, deoxycytidine kinase-deficient CCRF-CEM; for Factor* (Resistance Factor = Ratio of dCK- on Wild-type CCRF-CEM): ratio of IC50 CEM/dCK- to CCRF-CEM, 24 h. The method, then:
as §1, §2, §3

Another assay deals with H-460. It is filed as cell-based, Human. The note with it: Homo sapiens, NCI-H460, read-out: IC50 H-460 24 h, 24 h drug exposure, wash, another 48 hr; 3H-TdR incorporation at 72 hr.
The next assay has as its system MCF-7. It is filed as cell-based, Human. The note with it: Homo sapiens, MCF7, read-out: IC50 MCF-7 24 h, 24 h drug exposure, wash, another 48 hr; 3H-TdR incorporation at 72 hr.

As for `CC(C)(C)OC(=O)N(CCCCC(=O)Nc1ccn([C@@H]2CO[C@H](CO)O2)c(=O)n1)Cc1ccccc1` [Compound 115, BENZYL-{4-[1-(2- HYDROXYMETHYL- [1,3]DIOXOLAN-4-YL)-2- OXO-1,2-DIHYDRO- PYRIMIDIN-4- YLCARBAMOYL]-BUTYL}- CARBAMIC ACID TERT!- BUTYL ESTER], the IC50 with SF-268 is 0.62 µM; with CCRF-CEM it was 0.2 µM; in the assay with CEM/dCK- it was greater than 100 µM; in the assay with H-460, 0.38 µM; in the assay on MCF-7, 0.15 µM. Further, in the assay on CEM/dCK-, the “Factor* (Resistance Factor = Ratio of dCK- on Wild-type CCRF-CEM)” value is greater than 500.

Consider `COc1ccc(OC(=O)OC[C@H]2OC[C@@H](n3ccc(NC(=O)OCc4ccccc4)nc3=O)O2)cc1` [Compound 116, CARBONIC ACID 4-(4- BENZYLOXYCARBONYLAMINO- 2-OXO-2H-PYRIMIDIN-1- YL)-[1,3]DIOXOLAN-2- YLMETHYL ESTER 4- METHOXY-PHENYL ESTER], for which the IC50 with SF-268 is 2.5 µM; in the assay with CCRF-CEM it was 0.38 µM; in the assay with CEM/dCK- it was greater than 100 µM; in the assay with H-460 it was 1.4 µM; in the assay with MCF-7, 0.11 µM. Moreover, the “Factor* (Resistance Factor = Ratio of dCK- on Wild-type CCRF-CEM)” value with CEM/dCK- is greater than 263.

Consider `COc1ccc(OC(=O)OC[C@H]2OC[C@@H](n3ccc(N)nc3=O)O2)cc1` [Compound 118, CARBONIC ACID 4-(4- AMINO-2-OXO-2H- PYRIMIDIN-1-YL)- [1,3]DIOXOLAN-2- YLMETHYL ESTER 4- METHOXY-PHENYL ESTER], for which the IC50 with SF-268 is 0.16 µM; with CCRF-CEM it was 0.028 µM; with CEM/dCK- it was greater than 100 µM; with H-460, 0.022 µM; in the assay with MCF-7 it was 0.077 µM. Moreover, the “Factor* (Resistance Factor = Ratio of dCK- on Wild-type CCRF-CEM)” value in the assay on CEM/dCK- is recorded as greater than 3571.

For `CCCCCCNC(=O)Nc1ccn([C@@H]2CO[C@H](COC(=O)NCCCCCC)O2)c(=O)n1` [Compound 119, HEXYL-CARBANIC ACID 4- [4-(3-HEXYL-UREIDO)-2- OXO-2#H!-PYRIMIDIN-1- YL]-[1,3]DIOXOLAN-2- YLMETHYL ESTER], the IC50 came out at 94 µM with SF-268; 56 µM in the assay with CCRF-CEM; 96 µM in the assay on CEM/dCK-; 17 µM in the assay with H-460; 27 µM with MCF-7. Besides, in the assay with CEM/dCK-, the “Factor* (Resistance Factor = Ratio of dCK- on Wild-type CCRF-CEM)” value was “˜2”.

In the case of `CCCCCCNC(=O)Nc1ccn([C@@H]2CO[C@H](CO)O2)c(=O)n1` [Compound 120, 1-HEXYL-3-[1-(2- HYDROXYMETHYL- [1,3]DIOXOLAN-4-YL)-2- OXO-1,2-DIHYDRO- PYRIMIDIN-4-YL]-UREA], the IC50 in the assay with SF-268 is greater than 100 µM; with CCRF-CEM, greater than 100 µM; in the assay on CEM/dCK-, greater than 100 µM; in the assay on H-460, greater than 100 µM; in the assay on MCF-7 it was 64 µM.

`CCCCCCNC(=O)OC[C@H]1OC[C@@H](n2ccc(N)nc2=O)O1` [Compound 121, HEXYL-CARBAMIC ACID 4- (4-AMINO-2-OXO-2H- PYRIMIDIN-1-YL)- [1,3]DIOXOLAN-2- YLMETHYL ESTER]: the IC50 is greater than 100 µM with SF-268; 17 µM in the assay on CCRF-CEM; greater than 100 µM in the assay with CEM/dCK-; 28 µM in the assay on H-460; 37 µM in the assay on MCF-7. In the assay with CEM/dCK-, the “Factor* (Resistance Factor = Ratio of dCK- on Wild-type CCRF-CEM)” value is on record as greater than 6.

As for `CCCCCCOC(=O)OC[C@H]1OC[C@@H](n2ccc(NC(=O)OCc3ccccc3)nc2=O)O1` [Compound 122, CARBONIC ACID 4-(4- BENZYLOXYCARBONYLAMINO- 2-OXO-2H-PYRIMIDIN-1- YL)-[1,3]DIOXOLAN-2- YLMETHYL ESTER HEXYL ESTER], the IC50 with SF-268 is 0.57 µM; with CCRF-CEM, 0.71 µM; with CEM/dCK-, 61 µM; with H-460, 1.9 µM; in the assay with MCF-7, 0.21 µM. Also, in the assay on CEM/dCK-, the “Factor* (Resistance Factor = Ratio of dCK- on Wild-type CCRF-CEM)” value is listed as 86.

Consider `COc1ccc(C(OC[C@H]2OC[C@@H](n3ccc(N)nc3=O)O2)(c2ccccc2)c2ccc(OC)cc2)cc1` [Compound 123, 4-AMINO-1-{2-[BIS-(4- METHOXY-PHENYL)-PHENYL- METHOXYMETHYL]- [1,3]DIOXOLAN-4-YL}-1H- PYRIMIDIN-2-ONE], for which the IC50 with SF-268 was found to be 2 µM; with CCRF-CEM, 0.87 µM; in the assay with CEM/dCK-, 15 µM; in the assay on H-460, 1 µM; in the assay with MCF-7 it was 1.4 µM. In the assay with CEM/dCK-, the “Factor* (Resistance Factor = Ratio of dCK- on Wild-type CCRF-CEM)” value turned out to be 17.

As for `CC(C)c1ccc(NC(=O)OC[C@H]2OC[C@@H](n3ccc(NC(=O)OCc4ccccc4)nc3=O)O2)cc1` [Compound 124, {1-[2-(4-ISOPROPYL- PHENYLCARBAMOYLOXYMETHY L)-[1,3]DIOXOLAN-4-YL]- 2-OXO-1,2-DIHYDRO- PYRIMIDIN-4-YL}- CARBAMIC ACID BENZYL ESTER], the IC50 in the assay on SF-268 was 49 µM; in the assay on CCRF-CEM, 14 µM; in the assay on CEM/dCK- it was 27 µM; in the assay with H-460 it was 13 µM; in the assay on MCF-7 it was 14 µM. The “Factor* (Resistance Factor = Ratio of dCK- on Wild-type CCRF-CEM)” value in the assay on CEM/dCK- was “˜2”.

Turning to `CC(C)(C)OC(=O)N(CCCCC(C)(C)C(=O)Nc1ccn([C@@H]2CO[C@H](CO)O2)c(=O)n1)Cc1ccccc1` [Compound 125, Benzyl-{5-[1-(2-hydroxymethyl-[1,3]dioxolan-4-yl)-2-oxo-1,2-dihydro-pyrimidin-4-ylcarbamoyl]-5-methyl-hexyl}-carbamic acid tert-butyl ester], the IC50 in the assay on SF-268 was found to be 0.6 µM; in the assay with CCRF-CEM, 0.072 µM; in the assay with CEM/dCK- it was 7 µM; in the assay on H-460 it was 0.24 µM; with MCF-7 it was 0.016 µM. Also, the “Factor* (Resistance Factor = Ratio of dCK- on Wild-type CCRF-CEM)” value in the assay on CEM/dCK- was 97.

In the case of `CCCCCCOC(=O)OC[C@H]1OC[C@@H](n2ccc(N)nc2=O)O1` [Compound 126, CARBONIC ACID 4-(4- AMINO-2-OXO-2H- PYRIMIDIN-1-YL)- [1,3]DIOXOLAN-2- YLMETHYL ESTER HEXYL ESTER], the IC50 with SF-268 amounted to 0.0085 µM; with CCRF-CEM, 0.0016 µM; in the assay on CEM/dCK- it was 13 µM; in the assay with H-460, 0.0041 µM; in the assay on MCF-7, 0.002 µM. Also, the “Factor* (Resistance Factor = Ratio of dCK- on Wild-type CCRF-CEM)” value with CEM/dCK- was 8,125.

Consider `CN(C)/C=N/c1ccn([C@@H]2CO[C@H](COC(=O)CC34CC5CC(CC(C5)C3)C4)O2)c(=O)n1` [Compound 129, (2S,4S)-2-(1″- ADMANTANEACETOXY)METHYL -4-(4′-N,N- DIMETHYLAMINOMETHYLENE- CYTOSIN-1′-YL)-1,3- DIOXOLANE], for which the IC50 came to 0.2 µM with SF-268; 0.072 µM in the assay on CCRF-CEM; 15 µM in the assay on CEM/dCK-; 0.15 µM with H-460; 0.02 µM in the assay with MCF-7. Moreover, the “Factor* (Resistance Factor = Ratio of dCK- on Wild-type CCRF-CEM)” value in the assay on CEM/dCK- is on record as 208.

With `CN(C)/C=N/c1ccn([C@@H]2CO[C@H](COC(=O)C(c3ccccc3)c3ccccc3)O2)c(=O)n1` [Compound 130, (2S,4S)-2-(2″- DIPHENYLACETOXYMETHYL)- 4-(4′-N,N- DIMETHYLAMINOMETHYLENE- CYTOSIN-1′-YL)-1,3- DIOXOLANE], the IC50 in the assay with SF-268 came to 0.11 µM; in the assay on CCRF-CEM, 0.057 µM; in the assay with CEM/dCK-, 75 µM; in the assay on H-460, 0.058 µM; in the assay with MCF-7, 0.05 µM. The “Factor* (Resistance Factor = Ratio of dCK- on Wild-type CCRF-CEM)” value with CEM/dCK- is reported as 1,316.

Consider `CC(C)C(NC(=O)OCc1ccccc1)C(=O)OC[C@H]1OC[C@@H](n2ccc(/N=C/N(C)C)nc2=O)O1` (stereo partly drawn) [Compound 131, (2S,4S)-2- (BENZYLOXYCARBONYL-L- VALINOXYMETHYL)-4-(4′- N,N- DIMETHYLAMINOMETHYLENE- CYTOSIN-1′-YL)-1,3- DIOXOLANE], for which the IC50 turned out to be 0.012 µM in the assay on SF-268; 0.021 µM in the assay with CCRF-CEM; 83 µM in the assay with CEM/dCK-; 0.11 µM in the assay with H-460; 0.1 µM in the assay on MCF-7. Moreover, the “Factor* (Resistance Factor = Ratio of dCK- on Wild-type CCRF-CEM)” value in the assay with CEM/dCK- is given as 3,952.

As for `CN(C)/C=N/c1ccn([C@@H]2CO[C@H](COC(=O)C(C)(C)C)O2)c(=O)n1` [Compound 133, 2,2-Dimethyl-propionic acid 4-[4-(dimethylamino-methyleneamino)-2-oxo-2H-pyrimidin-1-yl]-[1,3]dioxolan-2-ylmethyl ester], the IC50 in the assay on SF-268 turned out to be 0.016 µM; in the assay on CCRF-CEM it was 0.027 µM; with CEM/dCK-, 31 µM; in the assay on H-460, 0.021 µM; in the assay with MCF-7, 0.1 µM. In addition, in the assay on CEM/dCK-, the “Factor* (Resistance Factor = Ratio of dCK- on Wild-type CCRF-CEM)” value is given as 1,148.

For `COc1ccc(C(OC[C@H]2OC[C@@H](n3ccc(N)nc3=O)O2)(c2ccccc2)c2ccccc2)cc1` [Compound 134, 4-AMINO-1-{2-[(4- METHOXY-PHENYL)- DIPHENYL- METHOXYMETHYL]- [1,3]DIOXOLAN-4-YL}-1H- PYRIMIDIN-2-ONE], the IC50 came to 3 µM with SF-268; 7 µM with CCRF-CEM; 20 µM in the assay with CEM/dCK-; 12 µM with H-460; 11 µM in the assay on MCF-7. Also, the “Factor* (Resistance Factor = Ratio of dCK- on Wild-type CCRF-CEM)” value in the assay with CEM/dCK- was determined as 3.

On to `O=c1nc(NC2Sc3ccccc3S2)ccn1[C@@H]1CO[C@H](CO)O1` [Compound 136, 4-(BENZO[1,3]DITHIOL-2- YLAMINO)-1-(2- HYDROXYMETHYL- [1,3]DIOXOLAN-4-YL)- 1H!PYRIMIDIN-2-ONE], for which the IC50 in the assay with SF-268 was 3 µM; in the assay with CCRF-CEM, 4 µM; with CEM/dCK-, greater than 100 µM; in the assay with H-460 it was 9 µM; in the assay on MCF-7 it was 12 µM. In the assay with CEM/dCK-, the “Factor* (Resistance Factor = Ratio of dCK- on Wild-type CCRF-CEM)” value is greater than 25.
